We go through eleven compounds from patent publication US10174024B2, “5H-pyrido[3,2-B]indole compounds as anticancer agents” (BRISTOL-MYERS SQUIBB COMPANY, priority 2015, dated 2019).

In general, IC50 refers to the point on the concentration scale where inhibition reaches its midpoint.

The test has as its target BRD4 (Homo sapiens, UniProt O60885). Description: Time Resolved Fluorescence Resonance Energy Transfer (TR-FRET) binding assay, FRET BRD4. As to conditions: one of the FRET assays described (BRD4 bromodomain construct not specified); read-out: FRET BRD4 IC50. (In TR-FRET formats the signal depends on donor and acceptor labels being close together.)

Take “4-{5-[(3-Fluoropyridin-2-yl)(oxan-4-yl)methyl]-3-[4-(^2H3)methyl-1-methyl-1H-1,2,3-triazol-5-yl]-5H-pyrido[3,2-b]indol-7-yl}-1λ^6,4-thiomorpholine-1,1-dione [Example 68]”: the IC50 was < 5 nM.

Take `Cc1nnn(C)c1-c1cnc2c3ccc(C4(C)CNC(=O)O4)cc3n([C@H](c3ccccc3)C3CCOCC3)c2c1` (single isomer, unassigned) [Example 9]: the IC50 was < 5 nM.

For `Cc1nnn(C)c1-c1cnc2c3ccc(C4(C)CNC(=O)O4)cc3n([C@H](c3ccccc3)C3CCOCC3)c2c1` (single isomer, unassigned) [Example 10], the IC50 was < 5 nM.

`Cc1nnn(C)c1-c1cnc2c3ccc(N4CCC(F)(F)CC4)cc3n(C(c3ccccc3)C3CCC(F)(F)CC3)c2c1` (single isomer, unassigned) [Example 75, 1-{5-[(4,4-Difluorocyclohexyl)(phenyl)methyl]-3-(dimethyl-1H-1,2,3-triazol-5-yl)-5H-pyrido[3,2-b]indol-7-yl}-4,4-difluoropiperidine]: the IC50 is < 5 nM.

Take `Cc1nnn(C)c1-c1cnc2c3ccc(N4CCC(F)(F)CC4)cc3n(C(c3ccccc3)C3CCC(F)(F)CC3)c2c1` (single isomer, unassigned) [Example 76, 1-{5-[(4,4-Difluorocyclohexyl)(phenyl)methyl]-3-(dimethyl-1H-1,2,3-triazol-5-yl)-5H-pyrido[3,2-b]indol-7-yl}-4,4-difluoropiperidine]: the IC50 is < 5 nM.

As for `Cc1nnn(C)c1-c1cnc2c3ccc(N4CCC(C(F)(F)F)CC4)cc3n(C(c3ccccc3)C3CCC(F)(F)CC3)c2c1` (single isomer, unassigned) [Example 77, 1-{5-[(4,4-Difluorocyclohexyl)(phenyl)methyl]-3-(dimethyl-1H-1,2,3-triazol-5-yl)-5H-pyrido[3,2-b]indol-7-yl}-4-(trifluoromethyl)piperidine], the IC50 was < 1 nM.

In the case of `Cc1nnn(C)c1-c1cnc2c3ccc(N4CCC(C(F)(F)F)CC4)cc3n(C(c3ccccc3)C3CCC(F)(F)CC3)c2c1` (single isomer, unassigned) [Example 78, 1-{5-[(4,4-Difluorocyclohexyl)(phenyl)methyl]-3-(dimethyl-1H-1,2,3-triazol-5-yl)-5H-pyrido[3,2-b]indol-7-yl}-4-(trifluoromethyl)piperidine], the IC50 was < 5 nM.

As for `Cc1nnn(C)c1-c1cnc2c3cc(N4C[C@@H](C)O[C@@H](C)C4)ccc3n(C(c3ccccc3)C3CCOCC3)c2c1` (stereo in doubt) [Example 3, (2R,6S)-4-[3-(Dimethyl-1H-1,2,3-triazol-5-yl)-5-[(R)-oxan-4-yl(phenyl)methyl]-5H-pyrido[3,2-b]indol-8-yl]-2,6-dimethylmorpholine], the IC50 is < 5 nM.

`Cc1nnn(C)c1-c1cnc2c3ccc(-c4ccnn4C)cc3n([C@H](c3ccccc3)C3CCOCC3)c2c1` [Example 1, 1,4-Dimethyl-5-[7-(1-methyl-1H-pyrazol-5-yl)-5-[(S)-oxan-4-yl(phenyl)methyl]-5H-pyrido[3,2-b]indol-3-yl]-1H-1,2,3-triazole]: the IC50 is < 5 nM.

As for `Cc1nnn(C)c1-c1cnc2c3ccc(-c4ccon4)cc3n([C@H](c3ccccc3)C3CCOCC3)c2c1` [Example 2, 1,4-Dimethyl-5-{5-[(S)-oxan-4-yl(phenyl)methyl]-7-(1,2-oxazol-3-yl)-5H-pyrido[3,2-b]indol-3-yl}-1H-1,2,3-triazole], the IC50 was < 5 nM.

As to `Cc1nnn(C)c1-c1cnc2c3cc(C4CCNCC4)ccc3n([C@H](c3ccccc3)C3CCOCC3)c2c1` [Example 4, 4-[3-(Dimethyl-1H-1,2,3-triazol-5-yl)-5-[(S)-oxan-4-yl(phenyl)methyl]-5H-pyrido[3,2-b]indol-8-yl]piperidine], the IC50 was < 1 nM.
